Patent publication US20100029643A1 (ASTRAZENECA AB, priority 2006, published 2010)

Target: T1, Edg-1/S1P1 receptor (Homo sapiens, UniProt P21453)
T1 construct: expressed in transfected cells; host or cells: human osteogenic sarcoma U2OS cells: Edg-1 Transfluor U2OS WT Clone #37 (assay I), Edg-1 Transfluor U2OS Clone #3 (assay II)
Test: In vitro cell based receptor activation assay - Transfluor assay (assay I or II; beta-arrestin GFP relocalization after S1P stimulation)
Settings: for inhibition at 3.7 µM: at 3.70 μM (titrated from top concentration 100 μM)
From the text: The following assays can be used to measure the effects of the compounds of the present invention as S1P1/Edg1 inhibitors.
I. In Vitro Cell Based Receptor Activation Assay-Transfluor Assay
(§1) This cell-based assay was designed to assess the ability of small molecule antagonists to inhibit activation of the GPCR S1P1 in the presence of its cognate ligand S1P. The assay used technology initially developed by Norak Biosciences (Xsira Pharmaceutical) and presently owned by Molecular Devices. A human osteogenic sarcoma (U2OS) cell line overexpressing the Edg-1/S1P1) receptor as well as a beta-arrestin/green fluorescent protein (GFP) construct hereafter termed Edg-1 Transfluor U2OS WT Clone #37 was employed.
Using a high content screening approach (Cellomics Arrayscan), receptor activity was measured by assessment of the relocalization of beta-arrestin GFP in response to stimulation of Edg-1 by SIP. Specifically, Edg-1 Transfluor U2OS WT Clone #37 cells were plated at a density of 6250 cells in 40 μL medium per well in 384 well plastic bottomed microtiter plates (BD Falcon) and incubated overnight at 37° C./5% CO2. Prior to screening, compounds were dissolved in 100% dimethyl sulfoxide (DMSO) to a final stock concentration of 10 mM. Compounds were then serially diluted at 30× final concentration in Edg-1 Transfluor cell growth medium containing […] using the Tecan Genesis instrument. These 30× plates were then diluted to 6× final concentration with Edg-1 Transfluor growth medium just prior to dosing. Cells were then dosed with 10 μL per well of 6× compound dilutions or 6% DMSO and pre-incubated for 15 minutes at room temperature. Cell plates were dosed with 10 μL per well 6× S1P Edg-1 Transfluor growth medium, then incubated for 45 minutes at 37° C./5% CO2. Final concentration in the well of DMSO was 1%, compound was IX (3-fold, 9 point IC50 dilutions starting at 100 μM final concentration), and either 375 nM or […] SIP ligand. Cell plates were then fixed by adding 50 μL per well of 5% formaldehyde in 1× Dulbecco's phosphate buffered saline (DPBS) directly and incubating for 30 minutes at room temperature in darkness. Fixative was removed and replaced with 50 μL per well of 1×DPBS, after which cells were stained with 10 μg/mL final concentration of Hoechst 33342 (Molecular Probes) for 15 minutes at room temperature in darkness. Stain was then removed from the plates and replaced with 50 μL per well of 1×DPBS using the BioTek ExL405 plate washer. Plates were then sealed and analysed on the Cellomics Arrayscan using the GPCR signalling algorithm. EC50 values were then calculated using IDBS ActivityBase software.
II. In Vitro Cell Based Receptor Activation Assay-Transfluor Assay
as §1, with “Devices (MDS Analytical Technologies).” for “Devices.”, “U2OS” for “U2OS WT”, “#3” for “#37”
Using a high content screening approach (Molecular Devices Image Express), receptor activity was measured by assessment of the relocalization of beta-aiTestin GFP in response to stimulation of Edg-1 by S1P. Specifically, Edg-1 Transfluor U2OS Clone #3 cells were plated at a density of 6250 cells in 44 μL medium per well in 384 well plastic bottomed microtiter plates (BD Falcon) and incubated overnight at 37° C./5% CO2. Prior to screening, compounds were dissolved in 100% dimethyl sulfoxide (DMSO) to a final stock concentration of 10 mM. Compounds were then serially diluted at 10× final concentration in Edg-1 Transfluor cell growth medium containing 6% DMSO using the BioMek instrument. […]

[1] = at 3.50 μM (titrated from top concentration 10 μM)

T1 sequence (P21453 whole entry): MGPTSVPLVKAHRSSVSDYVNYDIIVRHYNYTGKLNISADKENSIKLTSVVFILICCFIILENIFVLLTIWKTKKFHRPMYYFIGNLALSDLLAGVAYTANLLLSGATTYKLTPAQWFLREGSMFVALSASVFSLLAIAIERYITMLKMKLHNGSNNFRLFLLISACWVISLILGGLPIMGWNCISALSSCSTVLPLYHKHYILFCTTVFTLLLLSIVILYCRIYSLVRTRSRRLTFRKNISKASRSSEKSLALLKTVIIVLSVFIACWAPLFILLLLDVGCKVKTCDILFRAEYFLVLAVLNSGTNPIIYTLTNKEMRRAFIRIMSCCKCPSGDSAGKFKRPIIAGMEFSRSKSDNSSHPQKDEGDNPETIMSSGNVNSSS

With `CCn1c([C@@H](C)NS(=O)(=O)c2ccc(NC(=O)N(C)C)cc2)nc2ccc(C(F)(F)F)cc21` [Example 113, (R)-4-(3,3-Dimethylureido)-N-(1-(1-ethyl-6-(trifluoromethyl)-1H-benzo[d]imidazol-2-yl)ethyl)benzenesulfonamide] the “% inhibition” value [1] was “[drawing 125] (R)-4-(3,3-Dimethylureido)- N-(1-(1-ethyl-6- (trifluoromethyl)-1H- benzo[d]imidazol-2-yl)ethyl)benzenesulfonamide (Inactive at 3.50 μM)”.
`CCn1c([C@@H](C)NS(=O)(=O)c2ccc(Cl)cc2)nc2ccc(CN3CCOCC3)cc21` [Example 75, 4-Chloro-N-{(1R)-1-[1-ethyl-6-(morpholin-4-ylmethyl)-1H-benzimidazol-2-yl]ethyl}benzenesulfonamide] gave an inhibition at 3.7 µM of 37.2%.
For `CCn1c([C@@H](C)NS(=O)(=O)c2ccc(Cl)cc2)nc2cc(Cl)c(Cl)cc21` [Example 22, (R)-4-Chloro-N-[1-(5,6-dichloro-1-ethyl-1H-benzoimidazol-2-yl)ethyl]-benzenesulfonamide], the inhibition at 3.7 µM was 63.5%.
`CCn1c([C@@H](C)NS(=O)(=O)c2cnc(Cl)c(Br)c2)nc2ccc(C(F)(F)F)cc21` [Example 49, 5-Bromo-6-chloro-N-{(1R)-1-[1-ethyl-6-(trifluoromethyl)-1H-benzimidazol-2-yl]ethyl}pyridine-3-sulfonamide] was tested, and the inhibition at 3.7 µM was 92.1%.
`CCn1c([C@@H](C)NS(=O)(=O)c2ccc(Cl)cc2)nc2cccc(F)c21` [Example 60] showed an inhibition at 3.7 µM of 97.7%.
Compound `CCn1c([C@@H](C)NS(=O)(=O)c2ccc(Cl)cc2)nc2cc(-c3ccncc3)ccc21` [Example 83, 4-Chloro-N-[(1R)-1-(1-ethyl-5-pyridin-4-yl-1H-benzimidazol-2-yl)ethyl]benzenesulfonamide] has an inhibition at 3.7 µM of 16.4%.
Work on `CCn1c(C(C)(C)NS(=O)(=O)c2ccc(C#N)cc2)nc2ccc(C(F)(F)F)cc21` [Example 138, 4-Cyano-N-[1-(1-ethyl-6-trifluoromethyl-1H-benzoimidazol-2-yl)-1-methyl-ethyl]-benzenesulfonamide] yielded an inhibition at 3.5 µM [1] of 78.4%.
In the case of `CCn1c([C@@H](C)NS(=O)(=O)C2CCCC2)nc2ccc(C(F)(F)F)cc21` [Example 28, N-{(1R)-1-[1-Ethyl-6-(trifluoromethyl)-1H-benzimidazol-2-yl]ethyl} cyclopentanesulfonamide], the inhibition at 3.7 µM was 66.1%.
With `CCn1c(C(C)(C)NS(=O)(=O)c2ccc(C#N)nc2)nc2ncccc21` [Example 177, 6-cyano-N-(2-(1-ethyl-1H-imidazo[4,5-b]pyridin-2-yl)propan-2-yl)pyridine-3-sulfonamide] the inhibition at 3.5 µM [1] was 3.55%.
`CCn1c([C@@H](C)NS(=O)(=O)c2ccc(Cl)cc2)nc2ccc(C(=O)N(C)C)cc21` (stereo in doubt) [Example 72, 2-(1-{[(4-Chlorophenyl)sulfonyl]amino}-ethyl)-1-ethyl-N,N-dimethyl-1H-benzimidazole-6-carboxamide] gave an inhibition at 3.7 µM of 21.7%.
`CCn1c([C@@H](C)NS(=O)(=O)c2cccc(F)c2)nc2ccc(C(F)(F)F)cc21` [Example 120, N-{(1R)-1-[1-Ethyl-6-(trifluoromethyl)-1H-benzimidazol-2-yl]ethyl}-3-fluorobenzenesulfonamide] showed an inhibition at 3.5 µM [1] of 90.9%.
`CCn1c([C@@H](C)NS(=O)(=O)c2cnc(Cl)c(Cl)c2)nc2ccc(C(F)(F)F)cc21` [Example 48, 5,6-dichloro-N-(1-(1-ethyl-6-(trifluoromethyl)-1H-benzo[d]imidazol-2-yl)ethyl)pyridine-3-sulfonamide] was tested, and the inhibition at 3.5 µM [1] was 95.4%.
`CCn1c([C@@H](C)NS(=O)(=O)c2ccc(Cl)cc2)nc2cc(OC)c(OC)cc21` [Example 61, 4-Chloro-N-[(1R)-1-(1-ethyl-5,6-dimethoxy-1H-benzimidazol-2-yl)ethyl]benzenesulfonamide] showed an inhibition at 3.7 µM of 54.9%.
With `CCn1c([C@@H](C)NS(=O)(=O)c2ccc([N+](=O)[O-])cc2)nc2ccc(C(F)(F)F)cc21` [Example 110, (R)-N-(1-(1-Ethyl-6-(trifluoromethyl)-1H-benzo[d]imidazol-2-yl)ethyl)-4-nitrobenzenesulfonamide] the inhibition at 3.5 µM [1] was 92.4%.
